Common to all, as to assay: inhibition of tumour cell growth, NCI panel, 48 h
Assay [1] relates to HCT-15 colon.
Assay [2] concerns COLO 205 colon.
For assay [3], the system named is MALME-3M melanoma.
Assay [4] relates to M14 melanoma.
Assay [5] concerns U251 CNS.
For assay [6], the system named is RPMI-8226 leukemia.
In assay [7] the test system is MOLT-4 leukemia.
For assay [8], the system named is SW-620 colon.
Assay [9] concerns ACHN renal.

Several values for one entry are separate records, joined by “and”; a condition that tells them apart may be missing. Identical values can stand only once.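 Five concentrations, 48 hours, 96-well plates. GI50: concentration for 50% inhibition of growth. TGI is the concentration that stops growth completely.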 Where only a bound is given, the exact number is not on record here.

As for `CC(=O)Nc1ccc(OCC(O)CO)cc1` (configuration not stated), the TGI in assay [1] is over 100 µM; in assay [2] it was over 100 µM; in [3], over 100 µM; in assay [4], over 100 µM; in assay [5], over 100 µM; in [6], 43.9 µM. Further, the TGI in assay [7] was over 100 µM; in assay [8], 21.6 µM; in assay [9] it was over 100 µM.
Take `COc1ccc(S(=O)(=O)N/N=C/CN2C(=O)c3ccccc3C2=O)cc1`: the TGI in [1], in [2], in assay [3], in [4], in assay [5] and in [6] was over 100 µM in each case. Further, the TGI in assay [7], in assay [8] and in [9] was over 100 µM throughout.
With `O=C(OCc1ccccc1)c1ccccc1-c1c2ccc(=O)cc-2oc2cc(OCc3ccccc3)ccc12`, the TGI in assay [1] was 63.3 µM; in [2], 42.8 µM; in [3], 31.4 µM; in assay [4], 44.7 µM; in [5], 13.9 µM; in [6], 57.7 µM. Also, the TGI in assay [7] is 6.44 µM; in [8], over 100 µM; in assay [9], over 100 µM.
Take `CCOC(=O)C1C(=O)c2cccc(OC)c2C2COC(=O)N12` (configuration not stated): the TGI in assay [1], in [2], in assay [3], in assay [4], in [5] and in [6] was over 100 µM each time. The TGI in assay [7], in assay [8] and in [9] was over 100 µM each time.
With `CC1CCC2[C@@H](C)COC3O[C@]4(C)CCC1C32OO4` (some centres not stated), the TGI in [1], in assay [2], in [3], in assay [4], in [5] and in assay [8] was over 100 µM in each case. In assay [9], the TGI was over 100 µM.
In the case of `CCc1cccc(CC)c1NC(=O)C1=CNC(C)=C(C(=O)Nc2c(CC)cccc2CC)C1c1ccc(O)c(OC)c1` (configuration not stated), the TGI in assay [2] was over 100 µM; in assay [3], over 100 µM; in [4], over 100 µM; in assay [5] it was over 100 µM; in [6], 45.3 µM; in assay [7] it was 82.9 µM. The TGI in [8] and in [9] was over 100 µM throughout.
For the molecule `CCN(CC)c1ccc(N=C2C=CC(=C(C#N)C#N)c3ccccc32)c(C)c1`, the TGI in [1] is 10.2 µM; in assay [2], 8.05 µM; in assay [3] it was 4.51 µM; in assay [4] it was 3.6 µM; in assay [5], 3.44 µM; in assay [6] it was 15.2 µM. Further, the TGI was found to be 9.63 µM in [7] and 10.9 µM in assay [9].
As for `COc1ccc2c(c1)O/C(=C\c1ccc([N+](=O)[O-])s1)C2=O`, the GI50 in assay [1] is 0.259 µM; in assay [2], 1.88 µM; in [3], 4.99 µM; in [4], 2.89 µM; in assay [5], 2.07 µM; in assay [6], 1.69 µM. The GI50 in assay [7] was 2.26 µM; in assay [9], 1.41 µM. In addition, the TGI is 0.825 µM in assay [1]; over 100 µM in [2]; over 100 µM in assay [3]; over 100 µM in assay [4]; over 20.9 µM in assay [5]; over 100 µM in assay [6]. The TGI in [7] and in assay [9] was over 100 µM each time.
As to `CN/N=C(/CC(=O)c1sc(NNC(C)=O)nc1C)C(=O)Nc1ccc(OC)cc1OC`, the TGI in assay [1], in assay [2], in assay [3], in [4], in assay [5] and in [6] was over 100 µM in each case. Moreover, the TGI in [7], in assay [8] and in [9] was over 100 µM in each case.
`N#CC12CC3(CCC1CCC1(C2)OCCO1)OCCO3` (configuration not stated): the TGI in [1], in assay [2], in assay [3], in assay [4], in assay [5] and in [6] was over 100 µM in each case. Besides, the TGI in assay [7], in assay [8] and in [9] was over 100 µM each time.
For `Nc1ncnc2c1ncn2COC/C=C/I`, the TGI in assay [2], in assay [3], in assay [4], in [5], in assay [6] and in assay [7] was over 100 µM throughout. For the same molecule, the TGI in assay [8] and in assay [9] was over 100 µM each time.
Regarding `CCCNC(=O)Nc1ccc2c(c1)Cc1cc(N(CCCl)CCCl)ccc1-2`, the TGI in assay [1] is over 100 µM; in [2], 26.7 µM; in assay [3], over 100 µM; in [4] it was over 100 µM; in assay [5], over 100 µM; in [6], over 100 µM. Besides, the TGI in assay [8] is over 100 µM; in [9], 33.8 µM.
For the molecule `CCCCCC/C(CC(=O)CCC(=O)NCCc1ccccc1)=N\NC(=O)c1ccc2ccccc2c1O`, the TGI was over 100 µM in assay [2]; over 100 µM in [3]; over 100 µM in [4]; over 100 µM in assay [5]; over 100 µM in [6]; 56.5 µM in assay [7]. Also, the TGI in assay [8] and in [9] was over 100 µM throughout.
On to `ClCCCN1CCCCC1CCl` (configuration not stated), for which the TGI in assay [1], in assay [2], in [3], in [4], in assay [5] and in [6] was over 100 µM in each case. Also, the TGI in assay [7], in [8] and in assay [9] was over 100 µM in each case.
For the molecule `Nc1nc(Cl)c2ncn(Cc3ccc(-c4ccc(CCl)cc4)cc3)c2n1`, the GI50 in assay [2] was 7.17 µM; in assay [4], 13.3 µM; in assay [6], 1.43 µM; in assay [7], over 100 µM; in assay [8], 14.1 µM; in [9], 4.5 µM. Also, the TGI in assay [2] was 74.4 µM; in [4], 29.4 µM; in assay [6], 5.58 µM; in assay [7] it was over 100 µM; in [8] it was 76.1 µM; in assay [9], over 100 µM.
On to `O=C1OC(=O)C2C1C1C(c3ccccc3)=C(c3ccccc3)C2(O)C2C(=O)OC(=O)C12` (configuration not stated), for which the TGI in [1], in assay [2], in assay [3], in assay [4], in assay [5] and in assay [6] was over 100 µM throughout. Also, the TGI in [7], in assay [8] and in assay [9] was over 100 µM throughout.
Regarding `COc1c(OC2OC(CO)C(O)C(O)C2O)cc2c(c1OC)-c1ccc(OC)c(=O)cc1[C@@H](NC(C)=O)CC2` (some centres not stated), the TGI in assay [1], in [2], in [3], in assay [4], in assay [5] and in [6] was over 100 µM in each case. The TGI in assay [7], in [8] and in assay [9] was over 100 µM in each case.
For the molecule `CCC(=O)OCN1C(=O)C=CC1=O`, the GI50 in [1] was 20.1 µM; in [2], 1.84 µM; in assay [3], 16 µM; in [6], 19.3 µM and 4.42 µM; in assay [7] it was 3.32 µM; in assay [9] it was 15.1 µM. The TGI in [1] is 39.7 µM and 56.8 µM; in assay [2], 3.56 µM and 11.3 µM; in assay [3], 31.5 µM and 27.6 µM; in assay [4], 37.5 µM and 32.3 µM; in [5], 31.1 µM and 31.6 µM; in assay [6] it was 56.2 µM and 13.5 µM. Moreover, the TGI in assay [8] is 3.58 µM and 4.43 µM; in assay [9] it was 28.5 µM and 19.7 µM.
As for `C#Cc1ccccc1N1C(=O)C=CC1=O`, the TGI in assay [2], in assay [3], in assay [4], in assay [5], in assay [6] and in [7] was over 100 µM each time. For the same molecule, the TGI in [8] and in assay [9] was over 100 µM each time.
On to `CCOc1cc[n+](C(=C=[N-])C#N)cc1`, for which the TGI in [1], in [2], in [3], in assay [4], in [5] and in [6] was over 100 µM in each case. Besides, the TGI in assay [7] and in assay [8] was over 100 µM throughout.
Take `O=S1(=O)C=C(c2ccccc2)C(c2ccccc2)=C1`: the GI50 in assay [1] was 1.53 µM; in [2] it was 1.77 µM; in [3], 1.93 µM; in [4], 1.58 µM; in assay [5] it was 1.54 µM; in [6], 3.3 µM. Moreover, the GI50 is 1.07 µM in [8] and 1.55 µM in assay [9]. Also, the TGI amounted to 3.15 µM in [1]; 3.61 µM in [2]; 4.72 µM in assay [3]; 3.01 µM in assay [4]; 2.88 µM in [5]; 7.92 µM in assay [6]. The figures for the TGI in [8] and in assay [9] were 2.39 µM and 2.88 µM, respectively.
For `CC(=O)N1CCN(C=S)CC1`, the TGI in assay [1], in assay [2], in assay [3], in assay [4], in assay [5] and in assay [6] was over 100 µM throughout. Moreover, the TGI in [7], in [8] and in [9] was over 100 µM each time.
For `CN(C)c1ccc(/C=N/NC(=O)c2cnc3ccccc3c2)cc1`, the TGI in assay [1], in assay [2], in assay [3], in assay [4], in assay [5] and in [6] was over 100 µM in each case. The TGI in [8] and in assay [9] was over 100 µM in each case.
As for `C/C(=N\NS(=O)(=O)c1ccccc1)c1ccc[n+]([O-])n1`, the TGI in [1], in assay [4], in assay [5], in assay [6], in assay [7] and in assay [8] was over 100 µM in each case. The TGI in [9] is over 100 µM.
On to `CCCCCCC(=O)CC(=O)C(=O)Nc1ccccc1C`, for which the TGI was over 66.3 µM in [1]; over 100 µM in [2]; over 100 µM in assay [3]; over 100 µM in assay [4]; over 100 µM in assay [5]; over 100 µM in assay [6]. Also, the TGI is over 100 µM in [7], over 59.4 µM in assay [8] and over 100 µM in [9].
`Cc1ccc(SSCCCCS(=O)O)cc1`: the TGI in assay [1] is 89.2 µM; in assay [2], 39.7 µM; in assay [3] it was 69.7 µM; in [4] it was 32.6 µM; in assay [5], 39.2 µM; in [7], over 100 µM. Besides, the values for the TGI in assay [8] and in assay [9] were 38.5 µM and 62.7 µM, respectively.
As to `Cc1ccccc1NC(=O)CC(=O)n1nc(-c2ccccc2)c(N=Nc2ccc([N+](=O)[O-])cc2)c1-c1ccccc1`, the TGI was found to be 30.5 µM in [2]; 75.9 µM in [3]; 33.3 µM in [4]; 34.6 µM in assay [5]; 69.4 µM in assay [6]; 64.8 µM in assay [7]. Also, the values for the TGI in assay [8] and in assay [9] were over 100 µM and 44.5 µM, respectively.
As for `NNC(=O)N/N=C1/C(=O)N(c2ccc(Cl)c(Cl)c2)C(=O)C(=O)C1c1nc2ccccc2o1` (configuration not stated), the TGI in assay [1], in assay [2], in [3], in assay [4], in assay [5] and in [7] was over 100 µM in each case. The TGI in [8] and in assay [9] was over 100 µM in each case.
With `COC(=O)C(C(=O)C(=O)Nc1ccc(N)cc1[N+](=O)[O-])c1nc2ccc(Cl)cc2[nH]c1=O` (configuration not stated), the TGI in [1], in [2], in assay [3], in assay [4], in [6] and in assay [7] was over 100 µM in each case. The TGI in assay [8] and in assay [9] was over 100 µM in each case.

For the origin of these results see PubChem BioAssay (NCI).
